The text below walks through data of paper PMC7226045, “Ensartinib (X-396) Effectively Modulates Pharmacokinetic Resistance Mediated by ABCB1 and ABCG2 Drug Efflux Transporters and CYP3A4 Biotransformation Enzyme” (Cancers, 2020).

The term Cmax denotes the maximum level reached in the sampled fluid or tissue. Broadly, the IC50 is the point on the concentration scale where inhibition reaches its midpoint.

Details of data set [1]: method as in doi:10.1200/JCO.2018.36.15_suppl.e21122. The settings on record: in vivo pharmacokinetic studies in humans (patients); cited from earlier work.
The subject of a further data set is MDCKII-ABCC1 cells. In words: MTT proliferation assay, MDCKII-ABCC1. The data set is classed as cell-based, canine. The settings on record: Canis lupus familiaris, 48 h, read-out: IC50, sensitivity to ensartinib. Here is the method: (§1) MTT proliferation assay was performed as described previously.
For orientation: Formazan colour is commonly taken as a measure of viable cells.

Another data set deals with T1, ABCG2 (Homo sapiens, UniProt Q9UNQ0).
T1 construct: expressed in transfected cells; host or cells: MDCKII-ABCG2 (from Dr. Alfred Schinkel, The Netherlands Cancer Institute)
T1 sequence (Q9UNQ0 1-655): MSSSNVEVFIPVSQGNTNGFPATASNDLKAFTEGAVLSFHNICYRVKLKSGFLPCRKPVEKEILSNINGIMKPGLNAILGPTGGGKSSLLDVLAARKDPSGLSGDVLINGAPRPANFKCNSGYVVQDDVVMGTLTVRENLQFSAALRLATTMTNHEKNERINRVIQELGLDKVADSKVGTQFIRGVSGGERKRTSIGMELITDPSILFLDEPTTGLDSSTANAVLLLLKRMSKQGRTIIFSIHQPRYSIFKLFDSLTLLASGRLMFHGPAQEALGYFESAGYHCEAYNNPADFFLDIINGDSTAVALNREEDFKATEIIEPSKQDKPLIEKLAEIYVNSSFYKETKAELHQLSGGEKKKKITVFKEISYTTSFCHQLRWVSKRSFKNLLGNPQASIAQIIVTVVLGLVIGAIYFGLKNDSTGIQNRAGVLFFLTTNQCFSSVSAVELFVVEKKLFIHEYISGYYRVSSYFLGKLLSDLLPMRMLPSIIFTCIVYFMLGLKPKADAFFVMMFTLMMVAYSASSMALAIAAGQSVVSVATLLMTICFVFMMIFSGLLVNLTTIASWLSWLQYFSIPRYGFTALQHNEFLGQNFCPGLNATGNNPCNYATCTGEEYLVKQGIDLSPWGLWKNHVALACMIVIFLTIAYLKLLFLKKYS
Put plainly: mitoxantrone accumulation assay (flow cytometry) in MDCKII-ABCG2 cells. The class given is cell-based. The settings on record: 1 µM mitoxantrone, 1 h, read-out: IC50, inhibition of ABCG2 (mitoxantrone accumulation). Here is the method:
The flow-cytometric inhibitory assay with daunorubicin and mitoxantrone was performed with minor modifications as described previously. MDCKII-par, MDCKII-ABCB1, MDCKII-ABCG2, and MDCKII-ABCC1 cell lines were seeded at densities of 22.0 × 10^4, 15.0 × 10^4, 25.0 × 10^4, and 22.0 × 10^4 cells/well, respectively, on a 12-well plate and then incubated for 24 h to reach approximately 70–80% confluence. Further steps including cell washing, the preparation of drug/model inhibitor dilutions, and their addition to cells were performed as described above. After the 10 min pre-incubation period, 2 µM daunorubicin (a substrate of ABCB1/ABCC1) or 1 µM mitoxantrone (ABCG2 substrate) were promptly added to all wells other than those containing background samples, then the plate was incubated for 1 h under standard conditions. The plates were subsequently placed on ice, the cells were washed twice with ice-cold 1× PBS, and 10× trypsin without phenol red was added. After complete trypsinization, the cells were vigorously resuspended in ice-cold 1× PBS containing 2% FBS. Samples were then transferred into test-tubes and kept on ice until their fluorescence could be measured using a flow cytometer (BD FACSCanto II, Allschwil, Switzerland). The excitation/emission wavelengths for daunorubicin and mitoxantrone were 490/565 and 640/670 nm, respectively.
(Flow cytometry measures light scatter and fluorescence of single cells or particles in a stream.)

For another data set, the system named is HepG2-EV cells. Put plainly: Docetaxel combination assay (MTT), HepG2-EV. The data set is classed as cell-based, human. The settings on record: 1 µM docetaxel, <0% antagonism, =0% additivity, >0% synergism. On the procedure: as §1
Cell viability was measured after a 48 h incubation using the MTT method as described above. […] Sensitization effects of < 0%, 0%, and >0% indicate antagonism, additivity, and synergism, respectively.

Another data set has as its system A431-parent cells. In words: MTT proliferation assay, A431-parent. The settings on record: Homo sapiens, 48 h, read-out: IC50, sensitivity to ensartinib. The class given is cell-based. On the procedure: as §1
Another data set addresses T2, ABCC1 (Homo sapiens, UniProt P33527).
T2 construct: expressed in transfected cells; host or cells: MDCKII-ABCC1 (from Dr. Alfred Schinkel, The Netherlands Cancer Institute)
In words: MDCKII monolayer transport assay, MDCKII-ABCC1. The data set is classed as in vitro ADME. The settings on record: dog, 1 µM ensartinib, read-out: transport ratio (r), BA/AB. On the procedure:
Transport assays were performed on microporous polycarbonate membrane filters (3 µm pore size, 24 mm diameter, Transwell 3414; Costar, Corning, NY, USA) using MDCKII parental as well as ABCB1-, ABCG2-, and ABCC1-overexpressing MDCKII cells. The cells were seeded at a density of 1.5 × 10^6 cells per insert and cultured to full confluence for 7 days with media exchanges on the second and fourth days. Before the start of the transport experiments, inserts were washed with 1 × PBS on both the apical and basal sides. The cells were then preincubated in Opti-MEM with or without model inhibitors (1 µM LY335979, 1 µM Ko143, or 25 µM MK-571). […] Ensartinib levels in samples were measured by UHPLC-MS/MS (see below). […]
Samples from the monolayer transport assays (10 µL) were mixed with 100 µL of acetonitrile and 100 µL of methanol, vortexed for 15 min, and centrifuged at 14,500 rpm for 3 min. […] The MS source parameters were set to the following: drying gas, 320 °C, flow rate 10 l/min; sheath gas, 400 °C at 12 l/min; nebulizer pressure 25 psi; capillary voltage 4000 V; nozzle voltage 0 V. Transitions of [M+H]^+ ions were detected using a dwell time of 150 ms, a cell acceleration of 4 V, and fragmentor voltages of 137 V for 547→357, 257 and 120 transitions (corresponding to collision energies of 16, 32, and 56 V).

T2 sequence (P33527 whole entry): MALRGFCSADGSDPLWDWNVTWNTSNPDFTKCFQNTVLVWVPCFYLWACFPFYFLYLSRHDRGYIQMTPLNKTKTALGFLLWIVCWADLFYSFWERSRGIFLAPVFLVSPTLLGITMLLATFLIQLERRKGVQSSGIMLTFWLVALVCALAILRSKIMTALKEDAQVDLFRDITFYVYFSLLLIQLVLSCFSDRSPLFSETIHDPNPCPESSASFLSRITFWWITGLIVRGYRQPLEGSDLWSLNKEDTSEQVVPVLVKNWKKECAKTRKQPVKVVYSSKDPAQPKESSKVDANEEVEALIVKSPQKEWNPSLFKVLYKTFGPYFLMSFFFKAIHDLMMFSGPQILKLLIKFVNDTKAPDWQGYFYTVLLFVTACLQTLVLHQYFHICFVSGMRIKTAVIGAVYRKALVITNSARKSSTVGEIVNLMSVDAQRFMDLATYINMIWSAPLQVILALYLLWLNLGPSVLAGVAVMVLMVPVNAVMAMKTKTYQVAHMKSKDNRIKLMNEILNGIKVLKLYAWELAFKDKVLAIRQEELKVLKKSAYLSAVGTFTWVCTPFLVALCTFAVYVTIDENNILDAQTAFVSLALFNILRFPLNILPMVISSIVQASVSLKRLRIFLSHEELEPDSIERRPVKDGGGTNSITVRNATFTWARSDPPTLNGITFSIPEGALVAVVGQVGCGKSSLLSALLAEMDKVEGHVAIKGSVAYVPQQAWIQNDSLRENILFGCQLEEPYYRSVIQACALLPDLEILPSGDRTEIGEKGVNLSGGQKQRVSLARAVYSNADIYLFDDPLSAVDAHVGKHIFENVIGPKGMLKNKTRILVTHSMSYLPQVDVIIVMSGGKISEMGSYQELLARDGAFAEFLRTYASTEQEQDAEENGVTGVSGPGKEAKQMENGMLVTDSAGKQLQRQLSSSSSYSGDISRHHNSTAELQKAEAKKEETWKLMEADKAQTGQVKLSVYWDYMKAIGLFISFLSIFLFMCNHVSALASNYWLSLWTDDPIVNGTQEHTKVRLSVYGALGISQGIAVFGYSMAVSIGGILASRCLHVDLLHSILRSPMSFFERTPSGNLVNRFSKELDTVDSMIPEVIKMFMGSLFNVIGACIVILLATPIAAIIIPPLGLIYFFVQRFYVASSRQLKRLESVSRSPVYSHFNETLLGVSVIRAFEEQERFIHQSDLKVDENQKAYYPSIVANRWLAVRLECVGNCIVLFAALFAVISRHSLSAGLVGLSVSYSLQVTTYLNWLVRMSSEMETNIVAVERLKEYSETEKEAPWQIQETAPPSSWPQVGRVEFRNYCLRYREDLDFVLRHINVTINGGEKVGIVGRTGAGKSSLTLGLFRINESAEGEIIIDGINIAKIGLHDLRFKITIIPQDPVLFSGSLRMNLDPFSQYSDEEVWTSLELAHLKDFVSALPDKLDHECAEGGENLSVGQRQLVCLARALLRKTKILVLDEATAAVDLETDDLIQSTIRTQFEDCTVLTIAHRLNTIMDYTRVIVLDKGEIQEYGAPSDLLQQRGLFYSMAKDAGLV

For the molecule `C[C@@H]1CN(C(=O)c2ccc(NC(=O)c3cc(O[C@H](C)c4c(Cl)ccc(F)c4Cl)c(N)nn3)cc2)C[C@H](C)N1` [ensartinib, Ensartinib], in data set [1], the Cmax is 1000 nM. The IC50 with MDCKII-ABCC1 cells is 21.9 µM; on ABCG2 it was 28.3 µM; with A431-parent cells, 2.69 µM. Also, the “sensitization effect of combination with docetaxel” value in the data set on HepG2-EV cells is “antagonistic”. Besides, on ABCC1, the efflux ratio at 4 h, 1 µM was 1.29.
